Assay results published in patent US20240254118A1, “PRMT5 INHIBITORS AND USES THEREOF” (Gilead Sciences, Inc., priority 2022, published 2024).

Columns and labels:
[1] = test system: SDMA signal (PRMT5 inhibition) in HCT116 MTAP-deleted cells; assay: Symmetric di-methyl arginine image-based high content screen assay (SDMA assay), HCT116 MTAP-deleted; type: cell-based; details: SDMA assay; for EC50: Homo sapiens, HCT-116, 72 h, 3 days of treatment, cell line not given, taken as HCT116 MTAP-deleted, read-out: EC50 (SDMA assay); for EC50 selectivity (SDMA assay): taken as HCT116 WT versus MTAP-deleted
Outline: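 Read-out: per-cell mean SDMA immunofluorescence (Alexa Fluor 488 secondary), cells segmented by DAPI on a high-content imager. Compound exposure in HCT116 MTAP-deleted cells lasted until fixation on Day 3; overnight 4° C primary anti-SDMA antibody staining.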

[2] = test system: HCT116 MTAP-deleted cells; assay: Cell viability assay (CellTiter-Glo, 7 days), HCT116 MTAP-deleted; details: Homo sapiens, HCT-116, 168 h
Description: Control compounds were analyzed in parallel each time for quality control.
In Brief, on Day −1, a serial dilution of stock compounds in DMSO was performed using BioMek liquid handlers and dispensed using Echo acoustic dispenser into 384 well plates. Both tool compounds and sample compounds were spotted in the same plate for a dose response of PRMT5 inhibitors. Compound plates were stored as frozen until the cells were ready for seeding.
On Day 0, 100 HCT WT or HCT116 MTAP-deleted cells were seeded in compound-containing 384 well plates (50 μl per well) in RPMI 1640 media supplemented with 10% heat inactivated fetal bovine serum, Glutamax and penicillin streptomycin using EL460 liquid dispenser 5 μl cassette (BioTek, part no. 7170011). After equilibrating the plate in room temperature, the cells were incubated for 7 days inside the sealed incubator set at 37 °C with 90% humidity and 5% CO2.
On Day 7, the viability of cells was measured using a CTG assay kit (CellTitre-Glo; Promega cat no. G7573). Shortly, 40 μl per well of luminescent cell viability assay reagent were dispensed using EL460 liquid dispenser 5 μl cassette. CTG luminescence signal was measured using an EnVision plate reader (PerkinElmer) in accordance with manufacturer's instruction. The CC50 values for each compound after 7 days of treatment were calculated using 4 parameter non-linear logistical curve fit.

EC50 [1] [nM] | EC50 selectivity (SDMA assay) [1] | Structure (SMILES) | CC50 [2] [nM]
1 to 5 | 43 | Cn1ncc2c(N)nc3cc(F)c(C(=O)N(Cc4ccc(C(F)(F)F)cn4)N4CCCOC4=O)cc3c21 [Example 144, 4-amino-7-fluoro-1-methyl-N-(2-oxo-1,3-oxazinan-3-yl)-N-[[5-(trifluoromethyl)-2-pyridyl]methyl]pyrazolo[4,3-c]quinoline-8-carboxamide] | < 100
< 1 | 45 | Cn1ncc2c(N)nc3cc(F)c(C(=O)N(Cc4ccc(C(F)(F)F)cn4)N4CCOC4=O)cc3c21 [Example 145, 4-amino-7-fluoro-1-methyl-N-(2-oxooxazolidin-3-yl)-N-[[5-(trifluoromethyl)-2-pyridyl]methyl]pyrazolo[4,3-c]quinoline-8-carboxamide] | < 100
< 1 | 16 | CN(C(=O)C1CC1)N(Cc1ccc(C(F)(F)F)cn1)C(=O)c1cc2c(cc1F)nc(N)c1cnn(C)c12 [Example 146, 4-amino-N′-(cyclopropanecarbonyl)-7-fluoro-N′,1-dimethyl-N-[[5-(trifluoromethyl)-2-pyridyl]methyl]pyrazolo[4,3-c]quinoline-8-carbohydrazide] | < 100
< 1 | 16 | CC(=O)N(c1ccccn1)N(Cc1ccc(C(F)(F)F)cn1)C(=O)c1ccc2nc(N)c3cnn(C)c3c2c1 [Example 147, N′-acetyl-4-amino-1-methyl-N′-(2-pyridyl)-N-[[5-(trifluoromethyl)-2-pyridyl]methyl]pyrazolo[4,3-c]quinoline-8-carbohydrazide] | < 100
1 to 5 | 66 | Cn1ncc2c(N)nc3cc(Cl)c(C(=O)N(Cc4ccc(C(F)(F)F)cn4)N4CCCCC4=O)cc3c21 [Example 148, 4-amino-7-chloro-1-methyl-N-(2-oxopiperidin-1-yl)-N-((5-(trifluoromethyl)pyridin-2-yl)methyl)-1H-pyrazolo[4,3-c]quinoline-8-carboxamide] | < 100
1 to 5 | 18 | Cn1ncc2c(N)nc3cc(F)c(C(=O)N(Cc4ccc(C(F)(F)F)cn4)N4CCCCC4=O)cc3c21 [Example 149, 4-amino-7-fluoro-1-methyl-N-(2-oxopiperidin-1-yl)-N-((5-(trifluoromethyl)pyridin-2-yl)methyl)-1H-pyrazolo[4,3-c]quinoline-8-carboxamide] | < 100
1 to 5 | 138 | Cn1ncc2c3cc(C(=O)N(Cc4ccc(C(F)(F)F)cn4)N4CCOC4=O)ccc3nc(N)c21 [Example 150, 4-amino-3-methyl-N-(2-oxooxazolidin-3-yl)-N-((5-(trifluoromethyl)pyridin-2-yl)methyl)-3H-pyrazolo[3,4-c]quinoline-8-carboxamide] | < 100
< 1 | 525 | Cn1ncc2c3cc(C(=O)N(Cc4ccc(C(F)(F)F)cn4)N4CCCC4=O)ccc3nc(N)c21 [Example 151, 4-amino-3-methyl-N-(2-oxopyrrolidin-1-yl)-N-((5-(trifluoromethyl)pyridin-2-yl)methyl)-3H-pyrazolo[3,4-c]quinoline-8-carboxamide] | < 100
1 to 5 | 128 | CC(=O)N(C)N(Cc1ccc(C(F)(F)F)cn1)C(=O)c1ccc2nc(N)c3c(cnn3C)c2c1 [Example 152, N′-acetyl-4-amino-N′,3-dimethyl-N-((5-(trifluoromethyl)pyridin-2-yl)methyl)-3H-pyrazolo[3,4-c]quinoline-8-carbohydrazide] | 100 to 1000
1 to 5 | 54 | CC(=O)N(C)N(Cc1ccc(C(F)(F)F)cc1F)C(=O)c1ccc2nc(N)c3c(cnn3C)c2c1 [Example 153, N′-acetyl-4-amino-N-(2-fluoro-4-(trifluoromethyl)benzyl)-N′,3-dimethyl-3H-pyrazolo[3,4-c]quinoline-8-carbohydrazide] | < 100
< 1 | 45 | CCN(C(C)=O)N(Cc1ccc(OC(F)F)cc1F)C(=O)c1cc2c(cc1F)nc(N)c1cnn(C)c12 [Example 154, N′-acetyl-4-amino-N-(4-(difluoromethoxy)-2-fluorobenzyl)-N′-ethyl-7-fluoro-1-methyl-1H-pyrazolo[4,3-c]quinoline-8-carbohydrazide] | < 100
< 1 | 94 | CN(C(=O)C1CC1)N(Cc1ccc(Cl)cc1F)C(=O)c1ccc2nc(N)c3cnn(C)c3c2c1 [Example 155, 4-amino-N-(4-chloro-2-fluorobenzyl)-N′-(cyclopropanecarbonyl)-N′,1-dimethyl-1H-pyrazolo[4,3-c]quinoline-8-carbohydrazide] | < 100
< 1 | 34 | CN(C(=O)N1CC(F)C1)N(Cc1ccc(C(F)(F)F)cn1)C(=O)c1ccc2nc(N)c3cnn(C)c3c2c1 [Example 156, 4-amino-N′-(3-fluoroazetidine-1-carbonyl)-N′,1-dimethyl-N-((5-(trifluoromethyl)pyridin-2-yl)methyl)-1H-pyrazolo[4,3-c]quinoline-8-carbohydrazide] | < 100
< 1 | 54 | CN(C(=O)N1CC(F)(F)C1)N(Cc1ccc(C(F)(F)F)cn1)C(=O)c1ccc2nc(N)c3cnn(C)c3c2c1 [Example 157, 4-amino-N′-(3,3-difluoroazetidine-1-carbonyl)-N′,1-dimethyl-N-((5-(trifluoromethyl)pyridin-2-yl)methyl)-1H-pyrazolo[4,3-c]quinoline-8-carbohydrazide] | < 100
< 1 | 4 | CN(C(=O)c1nccn1C)N(Cc1ccc(C(F)(F)F)cn1)C(=O)c1ccc2nc(N)c3cnn(C)c3c2c1 [Example 158, 4-amino-N′,1-dimethyl-N′-(1-methyl-1H-imidazole-2-carbonyl)-N-((5-(trifluoromethyl)pyridin-2-yl)methyl)-1H-pyrazolo[4,3-c]quinoline-8-carbohydrazide] | < 100
1 to 5 | 10 | CNC(=O)c1ccc(-c2ccc(CN(C(=O)c3ccc4nc(N)c5cnn(C)c5c4c3)N3CCCCC3=O)nc2)cn1 [Example 160, 4-amino-1-methyl-N-((6′-(methylcarbamoyl)-[3,3′-bipyridin]-6-yl)methyl)-N-(2-oxopiperidin-1-yl)-1H-pyrazolo[4,3-c]quinoline-8-carboxamide] | < 100
1 to 5 | 51 | Cn1ncc2c(N)nc3ccc(C(=O)N(Cc4ccc(-c5cnn(C(F)(F)F)c5)cn4)N4CCCCC4=O)cc3c21 [Example 161, 4-amino-1-methyl-N-(2-oxopiperidin-1-yl)-N-((5-(1-(trifluoromethyl)-1H-pyrazol-4-yl)pyridin-2-yl)methyl)-1H-pyrazolo[4,3-c]quinoline-8-carboxamide] | < 100
< 1 | 127 | CN(C(=O)C1CCC1)N(Cc1ccc(C(F)(F)F)nn1)C(=O)c1cc2c(cc1F)nc(N)c1cnn(C)c12 [Example 162, 4-amino-N′-(cyclobutanecarbonyl)-7-fluoro-N′,1-dimethyl-N-((6-(trifluoromethyl)pyridazin-3-yl)methyl)-1H-pyrazolo[4,3-c]quinoline-8-carbohydrazide] | < 100
1 to 5 | 145 | CN(C(=O)c1ncccn1)N(Cc1ccc(C(F)(F)F)cn1)C(=O)c1ccc2nc(N)c3cnn(C)c3c2c1 [Example 163, 4-amino-N′,1-dimethyl-N′-(pyrimidine-2-carbonyl)-N-((5-(trifluoromethyl)pyridin-2-yl)methyl)-1H-pyrazolo[4,3-c]quinoline-8-carbohydrazide] | < 100
1 to 5 | 163 | CC(=O)N(C)N(Cc1ccc2c(cnn2C)c1)C(=O)c1ccc2nc(N)c3cnn(C)c3c2c1 [Example 164, N′-acetyl-4-amino-N′,1-dimethyl-N-((1-methyl-1H-indazol-5-yl)methyl)-1H-pyrazolo[4,3-c]quinoline-8-carbohydrazide] | < 100
< 1 | 11 | CN(C(=O)c1ncco1)N(Cc1ccc(C(F)(F)F)cc1F)C(=O)c1ccc2nc(N)c3cnn(C)c3c2c1 [Example 165, N′-(4-amino-1-methyl-1H-pyrazolo[4,3-c]quinoline-8-carbonyl)-N′-(2-fluoro-4-(trifluoromethyl)benzyl)-N-methyloxazole-2-carbohydrazide] | < 100
< 1 | 21 | CN(C(=O)c1cocn1)N(Cc1ccc(C(F)(F)F)cc1F)C(=O)c1ccc2nc(N)c3cnn(C)c3c2c1 [Example 166, N′-(4-amino-1-methyl-1H-pyrazolo[4,3-c]quinoline-8-carbonyl)-N′-(2-fluoro-4-(trifluoromethyl)benzyl)-N-methyloxazole-4-carbohydrazide] | < 100

Structure (SMILES) | EC50 [1] [nM] | EC50 selectivity (SDMA assay) [1] | CC50 [2] [nM]
Cn1ncc2c(N)nc3ccc(C(=O)N(Cc4ccc(C(F)(F)F)cn4)N4CCC5(CC5)C4=O)cc3c21 [Example 159, 4-amino-1-methyl-N-(4-oxo-5-azaspiro[2.4]heptan-5-yl)-N-((5-(trifluoromethyl)pyridin-2-yl)methyl)-1H-pyrazolo[4,3-c]quinoline-8-carboxamide] | < 1 | 69 | < 100
